Measured values as given in a melting point compilation (Tetko et al.).

Row | SMILES | melting point
1 | Oc1cccc2c1CCCC2 | 70 °C
2 | S=C=Nc1ccc(Oc2ccccc2)cc1 | 42 °C
3 | Cc1nn(-c2ccccc2)nc1C(=O)N1CCCC1 | 89 to 90 °C
4 | O=C1c2ccccc2C(=O)c2c1ccc(O)c2O | 287 to 289 °C
5 | O=C(Cl)c1ccc(I)cc1 | 63 °C
6 | O=CNNC=O | 156 °C
7 | COc1ccc(C=CC(=O)OCCOc2ccc(C=CC(=O)c3ccccc3)cc2)cc1 | 142 °C
8 | C=C1C[C@H]1C(O)C(=O)OC (stereo partly specified) | 41.5 °C
9 | CC(=O)NCCNc1cc(=O)oc2ccccc12 | 262 °C
10 | CSc1nc(N)c(C#N)s1 | 207 to 210 °C
11 | CCOC=C(C#N)C(=O)OCC | 49.5 °C
12 | CCOc1cc(C(=O)O)cc(OCC)c1OCC | 112 °C
13 | Brc1ccc(Oc2c(Br)c(Br)c(Br)c(Br)c2Br)cc1 | 184 °C
14 | OCc1ccccc1CN1CCOCC1 | 59 °C
15 | O=C(O)Cc1ccc(Cl)nc1 | 174 °C
16 | Oc1ccccc1C=NC1CCCCC1N=Cc1ccccc1O (stereo unspecified) | 118 °C
17 | CCCC(O)C(O)CO (stereo unspecified) | 66 °C
18 | CCN(CC)C(=O)c1ccccc1C(=O)N(CC)CC | 36 °C
19 | N#CC1(C#N)C2O[C@H](c3ccccc3)[C@@H](C3=C2CCCC3)C1(C#N)C#N | 168 °C
20 | COc1ccc(C(=O)c2ccc(-c3ccccc3)cc2)cc1OC | 107 to 109 °C
21 | CNC(C)=C(C(=O)OC)C(=O)c1cc(Cl)nc(Cl)c1 | 112 to 115 °C
22 | O=Nc1ccc2ccccc2c1O | 156 to 158 °C

Row | SMILES | melting point
23 | O=[N+]([O-])c1ccc2c3c(cccc13)-c1ccccc1-2 | 153 to 157 °C
24 | O=[N+]([O-])c1ccc(Cl)cc1[N+](=O)[O-] | 40 to 41 °C
25 | O=[N+]([O-])c1ccc(C(Cl)=Cc2ccc(C=C(Cl)c3ccc([N+](=O)[O-])cc3[N+](=O)[O-])cc2)c([N+](=O)[O-])c1 | 245 °C
26 | Cc1ccc(CC#N)cc1 | 18 °C
27 | NC(=S)CNC(=O)OCc1ccccc1 | 144 to 146 °C
28 | COC(=O)c1cccc(C(=O)O)c1 | 166 °C
29 | O=C(CBr)c1cc(Br)cc2c1OCC2 | 132 to 134 °C
30 | NCCc1c[nH]c2ccc(O)cc12 | 168 °C
31 | S=C=NCc1ccc(Cl)cc1Cl | 26 to 28 °C
32 | OC(Cc1ccccc1)c1ccccc1 (stereo unspecified) | 67 °C
33 | O=[N+]([O-])c1ccc(Nc2ccccc2O)c([N+](=O)[O-])c1 | 198 °C
34 | Cn1c2cc(N3CCCC3)cc(-c3ccccc3)c2c(=O)n1-c1ccccc1 | 159 °C
35 | C=C1/C(=N/Nc2cc(Cl)c(Cl)cc2Cl)C(=O)N(C)C(=O)N1C | 242 °C
36 | CCC#CCC | -103 °C
37 | CCOc1c(NN(C)C)c(=O)c1=O | 130 to 132 °C
38 | CSc1cc(-c2ccc(Cl)cc2)c2c(=O)n(-c3ccccc3)n(C)c2c1 | 167 °C
39 | OCCc1cccc2ccccc12 | 62 °C
40 | COc1ccc(-c2nnc3n2NC(c2ccc(O)c(OC)c2)S3)cc1 (stereo unspecified) | 173 °C
41 | O=C1CC2OCC=C3CN4CCC56c7ccccc7N1C5C2C3CC46 (stereo unspecified) | 287 °C
42 | CC(=O)c1ccc(-n2ccnc2)cc1 | 116 °C
43 | NNC(=O)c1ccc(-c2ccccc2)cc1 | 194 °C
44 | CCOC(=O)c1cc2cc(Br)ccc2o1 | 69 to 72 °C

Row | SMILES | melting point
45 | OCC(O)C(O)C(O)C(O)CO (stereo unspecified) | 190 °C
46 | Cc1occc1C(=O)Nc1ccccc1 | 110 °C
47 | Cc1cc(OC(=O)C(F)(F)F)c(C)cc1OC(=O)C(F)(F)F | 89 °C
48 | CCOC(=O)c1c(SC)nn(-c2ccc([N+](=O)[O-])cc2)c1N | 181 °C
49 | Nc1c(O)cccc1[N+](=O)[O-] | 216 °C
50 | COc1ccc(C=Cc2ccccc2)cc1 | 135 to 138 °C
51 | N#CC=Cc1ccco1 | 38 °C
52 | CCc1ccccc1[N+](=O)[O-] | -12.3 °C
53 | Nc1ncc(F)cc1F | 57 °C
54 | O[C@@H]1CC2=C(CC=CC2)C[C@@H]1O | 139 to 140 °C
55 | Nc1cc(F)c(Br)cc1F | 75 °C
56 | CCN(CC)CC(=O)Nc1sc2c(c1C#N)CCCC2 | 170 to 171 °C
57 | O=C(Cl)c1ccc(-c2ccsc2)cc1 | 145 to 147 °C
58 | CCOC(=O)C(=NNc1ccccc1[N+](=O)[O-])C(=O)OCC | 196 °C
59 | Cc1cc(N)ccc1I | 50 to 55 °C
60 | COc1cc(O)cc(OC)c1 | 46 °C
61 | NCCC(c1ccccc1)c1ccccc1 | 29 to 31 °C
62 | COc1ccc(OC)c(C(=O)CCCCC(=O)O)c1 | 76 °C
63 | C1CCC(C(C2CCCCC2)C2CCCCC2)CC1 | 48 °C
64 | COC(=O)c1cc(C)n(C)c1C | 117 °C
65 | CCOC(=O)c1c[nH]c2c(F)cccc2c1=O | 205 to 210 °C
66 | CC(C)(C)c1cc(CO)cc(C(C)(C)C)c1O | 140 °C
